The source of these data is US11377436B2, “EAAT2 enhancing molecules” (THE BRIGHAM AND WOMEN'S HOSPITAL, INC., priority 2017, dated 2022).

Molecules are shown by their SMILES.

For one experiment, the system named is human EAAT2. In words: In vitro assay in primary astrocyte cultures (PA-EAAT2 cells), EAAT2 protein levels by Western blot. In kind it is cell-based. The following applies: for In vitro - fold increase for EAAT2 in cultured astrocytes at indicated concentration (maximum activity): PA-EAAT2 cells treated 24 hr at 0.25-25 μM, relative to DMSO controls, value at the concentration that reaches maximum activity; for indicated concentration that reaches maximum activity (EAAT2 increase in cultured astrocytes): PA-EAAT2 cells, 24 hr, tested at 0.25, 0.5, 1, 2.5, 5, 10 and 25 μM. Here is the method:
In vitro assay in primary astrocyte cultures. Example compounds were initially evaluated in PA-EAAT2 cells, a primary astrocyte stably expressing human EAAT2 mRNAs (Kong et al., J Clin Invest. 124:1255-67). Cells were treated with the example compounds at 0.25 μM, 0.5 μM, 1 μM, 2.5 μM, 5 μM, 10 μM, and 25 μM for 24 hr and then harvested for measuring EAAT2 protein levels by Western blot analysis.
(A western blot detects proteins with antibodies after separation by electrophoresis.)

The subject of the next experiment is EAAT2. The experiment in a line: In vivo assay in wild-type mice, EAAT2 protein levels in forebrain gliosomes by Western blot. As to conditions: C57BL/6J mice, 40 mg/kg oral gavage, relative to vehicle controls. The procedure:
In vivo assay in wild-type mice. Example compounds that were capable of increasing EAAT2 protein expression in cultured astrocytes were further evaluated in C57BL/6J mice. Mice were treated by oral gavage with the compound at 40 mg/kg. At 24 hr post-treatment, mice were euthanized and forebrains were harvested for the gliosome preparation (Dunkley et al., Nat Protoc 3, 1718-1728). Gliosomes are enriched with astrocytic processes, and majority of EAAT2 is localized in astrocytic processes (gliosomes). EAAT2 protein levels in gliosomes were determined by Western blot analysis.

Consider `O=C(Nc1ccc(-c2ccccn2)cn1)c1ccccc1` [Example 3, N-([2,3′-bipyridin]-6′-yl)benzamide], for which, in the experiment on human EAAT2, the “In vitro - fold increase for EAAT2 in cultured astrocytes at indicated concentration (maximum activity)” value (from here on “In vitro - fold increase for EAAT2”) is 1.68 fold and the “indicated concentration that reaches maximum activity (EAAT2 increase in cultured astrocytes)” value is on record as “(5 μM)”. In the experiment on EAAT2, the “In vivo - fold increase for EAAT2 in mouse forebrain at 24 hr post treatment (40 mg/kg by PO)” value (shortened to “In vivo - fold increase for EAAT2”) worked out at 1.42 fold.

As to `O=C(Nc1ccc(-c2ccccn2)nc1)c1ccccc1` [Example 18, N-([2,2′-bipyridin]-5-yl)benzamide], in the experiment on human EAAT2, the “In vitro - fold increase for EAAT2” value is reported as 2.45 fold and the “indicated concentration that reaches maximum activity (EAAT2 increase in cultured astrocytes)” value is “(1 μM)”. Further, in the experiment on EAAT2, the “In vivo - fold increase for EAAT2” value was found to be 1.56 fold.

Take `O=C(Nc1ccc(-c2ccccn2)nc1)c1ccc(F)cc1` [Example 19, N-([2,2′-bipyridin]-5-yl)-4-fluorobenzamide]: in the experiment with human EAAT2, the “In vitro - fold increase for EAAT2” value was 1.97 fold and the “indicated concentration that reaches maximum activity (EAAT2 increase in cultured astrocytes)” value is “(1 μM)”. In addition, the “In vivo - fold increase for EAAT2” value in the experiment with EAAT2 worked out at 1.41 fold.

With `COc1ccc(C(=O)Nc2ccc(-c3ccccn3)nc2)cc1` [Example 21, N-([2,2′-bipyridin]-5-yl)-4-methoxybenzamide], in the experiment with human EAAT2, the “In vitro - fold increase for EAAT2” value came out at 1.73 fold and the “indicated concentration that reaches maximum activity (EAAT2 increase in cultured astrocytes)” value is recorded as “(0.5 μM)”. Moreover, the “In vivo - fold increase for EAAT2” value in the experiment on EAAT2 stood at 1.34 fold.

On to `O=C(Nc1ccc(-c2ccccn2)nc1)c1ccc(Cl)cc1` [Example 22, N-([2,2′-bipyridin]-5-yl)-4-chlorobenzamide], for which, in the experiment with human EAAT2, the “In vitro - fold increase for EAAT2” value is reported as 1.64 fold and the “indicated concentration that reaches maximum activity (EAAT2 increase in cultured astrocytes)” value is on record as “(0.5 μM)”. Further, in the experiment on EAAT2, the “In vivo - fold increase for EAAT2” value came to 1.20 fold.

Regarding `O=C(Nc1ccc(-c2ccccn2)nc1)c1cccc(Cl)c1` [Example 23, N-([2,2′-bipyridin]-5-yl)-3-chlorobenzamide], in the experiment on human EAAT2, the “In vitro - fold increase for EAAT2” value is listed as 1.84 fold and the “indicated concentration that reaches maximum activity (EAAT2 increase in cultured astrocytes)” value is given as “(2.5 μM)”. Further, the “In vivo - fold increase for EAAT2” value in the experiment on EAAT2 is reported as 1.45 fold.

In the case of `O=C(Nc1cnc(-c2ccccn2)cn1)c1ccccc1` [Example 33, N-(5-(pyridin-2-yl)pyrazin-2-yl)benzamide], the “In vitro - fold increase for EAAT2” value in the experiment with human EAAT2 was “no increase”. Also, the “In vivo - fold increase for EAAT2” value in the experiment on EAAT2 is given as “no increase”.

Take `O=C(Nc1ncc(-c2ccccn2)cn1)c1ccccc1` [Example 48, N-(5-(pyridin-2-yl)pyrimidin-2-yl)benzamide]: in the experiment with human EAAT2, the “In vitro - fold increase for EAAT2” value is 1.58 fold and the “indicated concentration that reaches maximum activity (EAAT2 increase in cultured astrocytes)” value was “(2.5 μM)”. In addition, the “In vivo - fold increase for EAAT2” value in the experiment on EAAT2 came to 1.45 fold.

For the molecule `O=C(Nc1cnc(-c2ccccn2)nc1)c1ccccc1` [Example 63, N-(2-(pyridin-2-yl)pyrimidin-5-yl)benzamide], in the experiment on human EAAT2, the “In vitro - fold increase for EAAT2” value worked out at 1.32 fold and the “indicated concentration that reaches maximum activity (EAAT2 increase in cultured astrocytes)” value was “(5 μM)”. Moreover, the “In vivo - fold increase for EAAT2” value in the experiment on EAAT2 is listed as “no increase”.

In the case of `CN(C)CCOc1ccc(-c2ccccn2)cn1` [Example 94, 2-([2,3′-bipyridin]-6′-yloxy)-N,N-dimethylethan-1-amine], in the experiment on human EAAT2, the “In vitro - fold increase for EAAT2” value came out at 1.51 fold and the “indicated concentration that reaches maximum activity (EAAT2 increase in cultured astrocytes)” value is “(5 μM)”. For the same molecule, the “In vivo - fold increase for EAAT2” value with EAAT2 was found to be 1.49 fold.

`CN(C)CCOc1cnc(-c2ccccn2)cn1` [Example 136, N,N-dimethyl-2-((5-(pyridin-2-yl)pyrazin-2-yl)oxy)ethan-1-amine]: the “In vitro - fold increase for EAAT2” value in the experiment with human EAAT2 is reported as “no increase”. Further, the “In vivo - fold increase for EAAT2” value with EAAT2 was “no increase”.

Take `CN(C)CCOc1ncc(-c2ccccn2)cn1` [Example 157, N,N-dimethyl-2-((5-(pyridin-2-yl)pyrimidin-2-yl)oxy)ethan-1-amine]: in the experiment on human EAAT2, the “In vitro - fold increase for EAAT2” value stood at 1.54 fold and the “indicated concentration that reaches maximum activity (EAAT2 increase in cultured astrocytes)” value is “(1 μM)”. The “In vivo - fold increase for EAAT2” value with EAAT2 turned out to be 1.37 fold.
